Results: PubChem BioAssay (NCI)
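Dose response: 5 concentrations. Exposure: 48 h. Format: 96-well plates. Endpoint: linear interpolation; highest concentration if not reached. TGI: total growth inhibition.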

Columns and labels:
Assay in all cases: NCI-60 cell line screen, 48 h
A498 renal = tested on: A498 renal
A549 NSCLC = tested on: A549 NSCLC
ACHN renal = tested on: ACHN renal
CAKI-1 renal = tested on: CAKI-1 renal
CCRF-CEM leukemia = tested on: CCRF-CEM leukemia
COLO 205 colon = tested on: COLO 205 colon
DLD-1 colon = tested on: DLD-1 colon
DMS 114 small cell lung = tested on: DMS 114 small cell lung
EKVX NSCLC = tested on: EKVX NSCLC
HCC-2998 colon = tested on: HCC-2998 colon
HCT-116 colon = tested on: HCT-116 colon
HCT-15 colon = tested on: HCT-15 colon
HL-60(TB) leukemia = tested on: HL-60(TB) leukemia
HOP-18 NSCLC = tested on: HOP-18 NSCLC
HOP-62 NSCLC = tested on: HOP-62 NSCLC
HT29 colon = tested on: HT29 colon
IGROV1 ovarian = tested on: IGROV1 ovarian
K-562 leukemia = tested on: K-562 leukemia
KM12 colon = tested on: KM12 colon
KM20L2 colon = tested on: KM20L2 colon
LOX IMVI melanoma = tested on: LOX IMVI melanoma
LXFL 529 NSCLC = tested on: LXFL 529 NSCLC
M14 melanoma = tested on: M14 melanoma
M19-MEL melanoma = tested on: M19-MEL melanoma
MALME-3M melanoma = tested on: MALME-3M melanoma
MOLT-4 leukemia = tested on: MOLT-4 leukemia
NCI-H226 lung = tested on: NCI-H226 lung
NCI-H23 lung = tested on: NCI-H23 lung
NCI-H460 lung = tested on: NCI-H460 lung
NCI-H522 lung = tested on: NCI-H522 lung
OVCAR-3 ovarian = tested on: OVCAR-3 ovarian
OVCAR-4 ovarian = tested on: OVCAR-4 ovarian
OVCAR-5 ovarian = tested on: OVCAR-5 ovarian
OVCAR-8 ovarian = tested on: OVCAR-8 ovarian
RPMI-8226 leukemia = tested on: RPMI-8226 leukemia
SF-268 CNS = tested on: SF-268 CNS
SF-295 CNS = tested on: SF-295 CNS
SF-539 CNS = tested on: SF-539 CNS
SK-MEL-2 melanoma = tested on: SK-MEL-2 melanoma
SK-MEL-28 melanoma = tested on: SK-MEL-28 melanoma
SK-MEL-5 melanoma = tested on: SK-MEL-5 melanoma
SK-OV-3 ovarian = tested on: SK-OV-3 ovarian
SN12C renal = tested on: SN12C renal
SNB-19 CNS = tested on: SNB-19 CNS
SNB-75 CNS = tested on: SNB-75 CNS
SNB-78 CNS = tested on: SNB-78 CNS
SR leukemia = tested on: SR leukemia
SW-620 colon = tested on: SW-620 colon
U251 CNS = tested on: U251 CNS
UACC-257 melanoma = tested on: UACC-257 melanoma
UACC-62 melanoma = tested on: UACC-62 melanoma
UO-31 renal = tested on: UO-31 renal
786-0 renal = tested on: 786-0 renal
DMS 273 small cell lung = tested on: DMS 273 small cell lung
RXF 393 renal = tested on: RXF 393 renal
TK-10 renal = tested on: TK-10 renal

## C/C(=C1/N=C(c2cc([N+](=O)[O-])ccc2Cl)N(c2ccc(Br)cc2)C1=O)c1cc2ccccc2oc1=O
A498 renal
  TGI: 66.8 µM
A549 NSCLC
  TGI: > 100 µM
ACHN renal
  TGI: > 100 µM
CAKI-1 renal
  TGI: > 100 µM
CCRF-CEM leukemia
  TGI: > 100 µM
COLO 205 colon
  TGI: 21.8 µM
DLD-1 colon
  TGI: > 100 µM
DMS 114 small cell lung
  TGI: > 100 µM
EKVX NSCLC
  TGI: > 100 µM
HCC-2998 colon
  TGI: 65.1 µM
HCT-116 colon
  TGI: > 100 µM
HCT-15 colon
  TGI: > 100 µM
HL-60(TB) leukemia
  TGI: > 100 µM
HOP-18 NSCLC
  TGI: > 100 µM
HOP-62 NSCLC
  TGI: > 100 µM
HT29 colon
  TGI: > 100 µM
IGROV1 ovarian
  TGI: > 100 µM
K-562 leukemia
  TGI: > 100 µM
KM12 colon
  TGI: > 100 µM
KM20L2 colon
  TGI: > 100 µM
LOX IMVI melanoma
  TGI: > 100 µM
LXFL 529 NSCLC
  TGI: > 100 µM
M14 melanoma
  TGI: > 100 µM
M19-MEL melanoma
  TGI: > 100 µM
MALME-3M melanoma
  TGI: > 100 µM
MOLT-4 leukemia
  TGI: > 100 µM
NCI-H226 lung
  TGI: > 100 µM
NCI-H23 lung
  TGI: > 100 µM
NCI-H460 lung
  TGI: > 100 µM
NCI-H522 lung
  TGI: 52.4 µM
OVCAR-3 ovarian
  TGI: > 100 µM
OVCAR-4 ovarian
  TGI: > 100 µM
OVCAR-5 ovarian
  TGI: > 100 µM
OVCAR-8 ovarian
  TGI: > 100 µM
RPMI-8226 leukemia
  TGI: > 100 µM
SF-268 CNS
  TGI: > 100 µM
SF-295 CNS
  TGI: > 100 µM
SF-539 CNS
  TGI: > 100 µM
SK-MEL-2 melanoma
  TGI: > 100 µM
SK-MEL-28 melanoma
  TGI: > 100 µM
SK-MEL-5 melanoma
  TGI: > 100 µM
SK-OV-3 ovarian
  TGI: > 100 µM
SN12C renal
  TGI: > 100 µM
SNB-19 CNS
  TGI: > 100 µM
SNB-75 CNS
  TGI: > 100 µM
SNB-78 CNS
  TGI: > 100 µM
SR leukemia
  TGI: > 100 µM
SW-620 colon
  TGI: > 100 µM
U251 CNS
  TGI: > 100 µM
UACC-257 melanoma
  TGI: > 100 µM
UACC-62 melanoma
  TGI: > 100 µM
UO-31 renal
  TGI: > 100 µM

## CC/C=C/c1cc2c(c3[nH]ccc13)[C@@H](C)CC2C (stereo not given in full) (tested in a mixture with another compound)
786-0 renal
  TGI: 33.1 µM
A549 NSCLC
  TGI: 39.1 µM
ACHN renal
  TGI: 31.7 µM
CAKI-1 renal
  TGI: 31.7 µM
COLO 205 colon
  TGI: 39.7 µM
DLD-1 colon
  TGI: 26.3 µM
DMS 114 small cell lung
  TGI: 35.6 µM
DMS 273 small cell lung
  TGI: 29.4 µM
EKVX NSCLC
  TGI: 36 µM
HCC-2998 colon
  TGI: 10 µM
HCT-116 colon
  TGI: 33.8 µM
HL-60(TB) leukemia
  TGI: 44.5 µM
HOP-18 NSCLC
  TGI: 26.5 µM
HOP-62 NSCLC
  TGI: 32.8 µM
HT29 colon
  TGI: 28.4 µM
KM12 colon
  TGI: 32.2 µM
KM20L2 colon
  TGI: 29.3 µM
LOX IMVI melanoma
  TGI: 29.4 µM
LXFL 529 NSCLC
  TGI: 30 µM
M14 melanoma
  TGI: 29.3 µM
M19-MEL melanoma
  TGI: 35.3 µM
MALME-3M melanoma
  TGI: 36 µM
NCI-H226 lung
  TGI: 28.8 µM
NCI-H23 lung
  TGI: 33.1 µM
NCI-H460 lung
  TGI: 29.5 µM
NCI-H522 lung
  TGI: 30.9 µM
OVCAR-4 ovarian
  TGI: 28.9 µM
OVCAR-5 ovarian
  TGI: 34.1 µM
OVCAR-8 ovarian
  TGI: 31.4 µM
RXF 393 renal
  TGI: 25.7 µM
SF-268 CNS
  TGI: 32 µM
SF-295 CNS
  TGI: 30.2 µM
SF-539 CNS
  TGI: 33.6 µM
SK-MEL-2 melanoma
  TGI: 29.6 µM
SK-MEL-28 melanoma
  TGI: 30.2 µM
SN12C renal
  TGI: 28.8 µM
SNB-19 CNS
  TGI: 33.8 µM
SNB-78 CNS
  TGI: 32.3 µM
SW-620 colon
  TGI: 32.3 µM
TK-10 renal
  TGI: 36.9 µM
U251 CNS
  TGI: 31.9 µM
UACC-257 melanoma
  TGI: 29.8 µM
UO-31 renal
  TGI: 31 µM
